Columns and labels:
[1] = molecular target: Serine-protein kinase ATM (Homo sapiens, UniProt Q13315); experiment: Inhibitory Activities of Compounds on ATM
Protocol: To a 96-well plate, 98 μL of DMSO and 2 μL of the 10 mM stock solution were added and mixed evenly so that the concentration of the solution was 200 μM.

[2] = molecular target: Serine/threonine-protein kinase ATR (Homo sapiens, UniProt Q13535); experiment: Inhibitory Activity of Compounds on ATR
Protocol: (1) Preparation of 1 kinase buffer and reaction termination solution1) 1 kinase buffer50 mM HEPES, pH 7.50.0015% Brij-[…] MnCl22) Reaction termination solution100 mM HEPES, pH 7.50.015% Brij-350.2% Coating Reagent #350 mM EDTA(2) Preparation of test compound1) The compound was dissolved in DMSO to yield a stock solution. Before the assay, to a 96-well plate, 30 uL of a 10 mM stock solution was taken and added with 60 uL of DMSO. […] 10 µL of the 2 substrate solution was taken to each well of the test plate.3) Kinase reaction:After incubation at 28 C. for a certain time, 30 uL of the reaction termination solution was added to terminate the enzymatic reaction.(5) Reading of the reaction wells(6) Calculation of inhibitory rates by means of curve fitting to the read values.% inhibitory rate=(max+-sample value)/(max+-min)*100; wherein max represents the value of the total reaction well with DMSO but no compound; min represents the value of the blank control well without enzyme and compound.

[3] = molecular target: DNA-dependent protein kinase catalytic subunit (Homo sapiens, UniProt P78527); experiment: Inhibitory Activities of Compounds on DNA-PK Kinase: ADP-Glo Kinase Assay
Protocol: (1) Preparation of 1× kinase buffer40 mM Tris, pH 7.50.0055% Brij-3520 mM MgCl20.05 mM DTT(2) Preparation of test compound1) The compound was dissolved in DMSO to yield a stock solution. Before the assay, the stock solution of the compound was diluted with DMSO to yield a 100× solution at a concentration that is 100 times a target concentration for assay. […] The test plate was shaken for mixing evenly.3) Kinase reactionEach well of the test plate was covered and incubated at room temperature for 3 h.(4) Kinase detection1) The ADP-Glo reagent was equilibrated at room temperature.2) 5 μL of ADP-Glo reagent was added to each well of the test plate to terminate the reaction.3) The plate was centrifuged for a short time to mix evenly, shaken gently, and equilibrated for 120 min.4) 10 μL of kinase detection reagent was added to each well, with shaking for 1 min, after equilibrating for 30 min, […] detection was performed.(5) Reading of the reaction wells(6) Calculation of inhibitory rates by means of curve fitting to the read values.

[4] = molecular target: Phosphatidylinositol 4,5-bisphosphate 3-kinase catalytic subunit alpha isoform (Homo sapiens, UniProt P42336); experiment: Inhibitory Activities of Compounds on PI3Kα, PI3Kβ, PI3Kγ, and PI3Kδ Kinase: ADP-Glo Kinase Assay
Protocol: (§1) (1) Preparation of 1× kinase buffer50 mM HEPES, pH 7.53 mM MgCl21 mM EGTA100 mM NaCl0.03% CHAPS2 mM DTT(2) Preparation of test compound1) Dissolution and dilution of compound:The compound was dissolved in DMSO to yield a stock solution. Before the assay, the stock solution of the compound was diluted with DMSO in a 384-well plate to yield a 100× solution at a concentration that is 100 times a target concentration for assay.50 μL of DMSO was added, respectively, into two blank wells in the same 384 well plate, corresponding to the total reaction control without compound and the blank control without enzyme.2) Preparation of test plate: 50 nL of the compound solution in each of the above wells was taken to a test plate.(3) Kinase reaction1) PI3Kα, PI3Kβ, PI3Kγ, and PI3Kδ kinases were dissolved, respectively, in 1× kinase buffer to yield a 2× enzyme solution at a concentration that is twice the final concentration. 2.5 µL of the 2× enzyme solution was taken to each well of the test plate. The blank control without enzyme was added with 2.5 μL of the 1× kinase buffer instead of the enzyme solution. The test plate was shaken for mixing evenly.2) PIP2 substrate and ATP were dissolved in the 1× kinase buffer to yield a 2× substrate solution that is twice the final concentration. 2.5 μL of the 2× substrate solution was taken to each well of the test plate. The test plate was shaken for mixing evenly.3) Kinase reactionEach well of the test plate was covered and incubated at room temperature for 1 h.(4) Kinase detection1) The ADP-Glo reagent was equilibrated at room temperature.2) 5 μL of ADP-Glo reagent was added to each well of the test plate to terminate the reaction.3) The plate was centrifuged for a short time to mix evenly, shaken gently, and equilibrated for 120 min.4) 10 μL of kinase detection reagent was added to each well, with shaking for 1 min, after equilibrating for 30 min, […] detection was performed.(5) Reading of the reaction wells(6) Calculation of inhibitory rates by means of curve fitting to the read values

[5] = molecular target: Phosphatidylinositol 4,5-bisphosphate 3-kinase catalytic subunit gamma isoform (Homo sapiens, UniProt P48736); experiment: as above
Chain of Phosphatidylinositol 4,5-bisphosphate 3-kinase catalytic subunit gamma isoform (P48736 whole entry, canonical isoform): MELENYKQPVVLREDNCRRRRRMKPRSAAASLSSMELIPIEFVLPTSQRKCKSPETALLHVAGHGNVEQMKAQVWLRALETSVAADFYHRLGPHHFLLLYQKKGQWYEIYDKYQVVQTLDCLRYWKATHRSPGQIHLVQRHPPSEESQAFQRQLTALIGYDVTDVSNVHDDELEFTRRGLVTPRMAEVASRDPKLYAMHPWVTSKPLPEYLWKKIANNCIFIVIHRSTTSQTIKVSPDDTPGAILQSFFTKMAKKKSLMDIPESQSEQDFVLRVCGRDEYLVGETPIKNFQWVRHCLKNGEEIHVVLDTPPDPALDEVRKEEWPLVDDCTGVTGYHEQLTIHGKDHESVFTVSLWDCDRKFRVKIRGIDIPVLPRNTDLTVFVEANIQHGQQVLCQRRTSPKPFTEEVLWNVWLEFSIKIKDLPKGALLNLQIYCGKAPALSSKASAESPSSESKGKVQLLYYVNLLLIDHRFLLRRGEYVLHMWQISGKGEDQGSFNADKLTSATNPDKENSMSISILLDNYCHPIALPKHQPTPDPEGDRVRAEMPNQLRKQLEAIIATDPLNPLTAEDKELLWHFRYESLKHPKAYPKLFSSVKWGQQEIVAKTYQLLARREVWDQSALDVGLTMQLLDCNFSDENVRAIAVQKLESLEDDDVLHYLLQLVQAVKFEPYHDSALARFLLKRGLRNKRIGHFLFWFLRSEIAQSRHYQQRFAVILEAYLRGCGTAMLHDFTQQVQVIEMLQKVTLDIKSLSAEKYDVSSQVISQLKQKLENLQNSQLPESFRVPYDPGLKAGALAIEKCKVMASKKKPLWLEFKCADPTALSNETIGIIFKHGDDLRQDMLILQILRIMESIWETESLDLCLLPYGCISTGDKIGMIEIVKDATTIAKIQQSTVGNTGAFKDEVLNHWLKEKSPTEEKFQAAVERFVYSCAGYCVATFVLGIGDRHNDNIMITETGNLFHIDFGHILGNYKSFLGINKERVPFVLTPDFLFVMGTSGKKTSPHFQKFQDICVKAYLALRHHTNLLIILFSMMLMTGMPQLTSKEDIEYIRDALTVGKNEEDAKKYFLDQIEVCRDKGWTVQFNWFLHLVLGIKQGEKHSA
Protocol: as §1

[6] = molecular target: T1, Phosphatidylinositol 4,5-bisphosphate 3-kinase catalytic subunit delta isoform (Homo sapiens, UniProt O00329); experiment: as above
T1 sequence (O00329 whole entry): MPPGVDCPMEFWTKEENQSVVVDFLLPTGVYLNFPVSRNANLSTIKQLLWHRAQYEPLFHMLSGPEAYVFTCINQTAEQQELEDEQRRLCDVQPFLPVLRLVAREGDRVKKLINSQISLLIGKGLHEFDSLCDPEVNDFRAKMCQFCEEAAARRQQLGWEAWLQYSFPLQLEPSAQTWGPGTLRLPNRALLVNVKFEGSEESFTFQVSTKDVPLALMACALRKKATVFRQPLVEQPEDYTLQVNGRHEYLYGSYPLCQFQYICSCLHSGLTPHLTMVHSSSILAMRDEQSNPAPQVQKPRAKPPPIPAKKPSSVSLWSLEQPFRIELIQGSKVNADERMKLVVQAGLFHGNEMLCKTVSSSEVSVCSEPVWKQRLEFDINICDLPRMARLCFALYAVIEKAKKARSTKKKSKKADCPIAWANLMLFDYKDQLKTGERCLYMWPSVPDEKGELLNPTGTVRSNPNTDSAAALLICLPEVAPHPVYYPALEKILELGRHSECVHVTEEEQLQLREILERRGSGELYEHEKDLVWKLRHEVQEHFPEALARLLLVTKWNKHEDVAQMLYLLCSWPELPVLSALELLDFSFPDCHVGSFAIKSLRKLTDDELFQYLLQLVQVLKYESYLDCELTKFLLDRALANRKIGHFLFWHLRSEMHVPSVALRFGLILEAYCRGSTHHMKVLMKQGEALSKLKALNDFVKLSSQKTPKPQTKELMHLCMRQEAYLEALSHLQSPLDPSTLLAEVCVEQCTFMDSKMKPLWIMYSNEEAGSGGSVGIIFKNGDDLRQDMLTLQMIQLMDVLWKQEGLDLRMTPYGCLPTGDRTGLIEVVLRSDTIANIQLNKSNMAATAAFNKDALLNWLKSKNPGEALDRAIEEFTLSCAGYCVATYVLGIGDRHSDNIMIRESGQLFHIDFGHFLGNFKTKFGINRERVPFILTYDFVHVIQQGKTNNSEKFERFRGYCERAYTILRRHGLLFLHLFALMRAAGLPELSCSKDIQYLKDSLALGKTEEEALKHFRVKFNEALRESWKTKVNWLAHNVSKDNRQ
Protocol: as §1

[7] = molecular target: Phosphatidylinositol 4,5-bisphosphate 3-kinase catalytic subunit beta isoform (Homo sapiens, UniProt P42338); experiment: as above
Protocol: as §1

Chain of Serine-protein kinase ATM (Q13315 whole entry): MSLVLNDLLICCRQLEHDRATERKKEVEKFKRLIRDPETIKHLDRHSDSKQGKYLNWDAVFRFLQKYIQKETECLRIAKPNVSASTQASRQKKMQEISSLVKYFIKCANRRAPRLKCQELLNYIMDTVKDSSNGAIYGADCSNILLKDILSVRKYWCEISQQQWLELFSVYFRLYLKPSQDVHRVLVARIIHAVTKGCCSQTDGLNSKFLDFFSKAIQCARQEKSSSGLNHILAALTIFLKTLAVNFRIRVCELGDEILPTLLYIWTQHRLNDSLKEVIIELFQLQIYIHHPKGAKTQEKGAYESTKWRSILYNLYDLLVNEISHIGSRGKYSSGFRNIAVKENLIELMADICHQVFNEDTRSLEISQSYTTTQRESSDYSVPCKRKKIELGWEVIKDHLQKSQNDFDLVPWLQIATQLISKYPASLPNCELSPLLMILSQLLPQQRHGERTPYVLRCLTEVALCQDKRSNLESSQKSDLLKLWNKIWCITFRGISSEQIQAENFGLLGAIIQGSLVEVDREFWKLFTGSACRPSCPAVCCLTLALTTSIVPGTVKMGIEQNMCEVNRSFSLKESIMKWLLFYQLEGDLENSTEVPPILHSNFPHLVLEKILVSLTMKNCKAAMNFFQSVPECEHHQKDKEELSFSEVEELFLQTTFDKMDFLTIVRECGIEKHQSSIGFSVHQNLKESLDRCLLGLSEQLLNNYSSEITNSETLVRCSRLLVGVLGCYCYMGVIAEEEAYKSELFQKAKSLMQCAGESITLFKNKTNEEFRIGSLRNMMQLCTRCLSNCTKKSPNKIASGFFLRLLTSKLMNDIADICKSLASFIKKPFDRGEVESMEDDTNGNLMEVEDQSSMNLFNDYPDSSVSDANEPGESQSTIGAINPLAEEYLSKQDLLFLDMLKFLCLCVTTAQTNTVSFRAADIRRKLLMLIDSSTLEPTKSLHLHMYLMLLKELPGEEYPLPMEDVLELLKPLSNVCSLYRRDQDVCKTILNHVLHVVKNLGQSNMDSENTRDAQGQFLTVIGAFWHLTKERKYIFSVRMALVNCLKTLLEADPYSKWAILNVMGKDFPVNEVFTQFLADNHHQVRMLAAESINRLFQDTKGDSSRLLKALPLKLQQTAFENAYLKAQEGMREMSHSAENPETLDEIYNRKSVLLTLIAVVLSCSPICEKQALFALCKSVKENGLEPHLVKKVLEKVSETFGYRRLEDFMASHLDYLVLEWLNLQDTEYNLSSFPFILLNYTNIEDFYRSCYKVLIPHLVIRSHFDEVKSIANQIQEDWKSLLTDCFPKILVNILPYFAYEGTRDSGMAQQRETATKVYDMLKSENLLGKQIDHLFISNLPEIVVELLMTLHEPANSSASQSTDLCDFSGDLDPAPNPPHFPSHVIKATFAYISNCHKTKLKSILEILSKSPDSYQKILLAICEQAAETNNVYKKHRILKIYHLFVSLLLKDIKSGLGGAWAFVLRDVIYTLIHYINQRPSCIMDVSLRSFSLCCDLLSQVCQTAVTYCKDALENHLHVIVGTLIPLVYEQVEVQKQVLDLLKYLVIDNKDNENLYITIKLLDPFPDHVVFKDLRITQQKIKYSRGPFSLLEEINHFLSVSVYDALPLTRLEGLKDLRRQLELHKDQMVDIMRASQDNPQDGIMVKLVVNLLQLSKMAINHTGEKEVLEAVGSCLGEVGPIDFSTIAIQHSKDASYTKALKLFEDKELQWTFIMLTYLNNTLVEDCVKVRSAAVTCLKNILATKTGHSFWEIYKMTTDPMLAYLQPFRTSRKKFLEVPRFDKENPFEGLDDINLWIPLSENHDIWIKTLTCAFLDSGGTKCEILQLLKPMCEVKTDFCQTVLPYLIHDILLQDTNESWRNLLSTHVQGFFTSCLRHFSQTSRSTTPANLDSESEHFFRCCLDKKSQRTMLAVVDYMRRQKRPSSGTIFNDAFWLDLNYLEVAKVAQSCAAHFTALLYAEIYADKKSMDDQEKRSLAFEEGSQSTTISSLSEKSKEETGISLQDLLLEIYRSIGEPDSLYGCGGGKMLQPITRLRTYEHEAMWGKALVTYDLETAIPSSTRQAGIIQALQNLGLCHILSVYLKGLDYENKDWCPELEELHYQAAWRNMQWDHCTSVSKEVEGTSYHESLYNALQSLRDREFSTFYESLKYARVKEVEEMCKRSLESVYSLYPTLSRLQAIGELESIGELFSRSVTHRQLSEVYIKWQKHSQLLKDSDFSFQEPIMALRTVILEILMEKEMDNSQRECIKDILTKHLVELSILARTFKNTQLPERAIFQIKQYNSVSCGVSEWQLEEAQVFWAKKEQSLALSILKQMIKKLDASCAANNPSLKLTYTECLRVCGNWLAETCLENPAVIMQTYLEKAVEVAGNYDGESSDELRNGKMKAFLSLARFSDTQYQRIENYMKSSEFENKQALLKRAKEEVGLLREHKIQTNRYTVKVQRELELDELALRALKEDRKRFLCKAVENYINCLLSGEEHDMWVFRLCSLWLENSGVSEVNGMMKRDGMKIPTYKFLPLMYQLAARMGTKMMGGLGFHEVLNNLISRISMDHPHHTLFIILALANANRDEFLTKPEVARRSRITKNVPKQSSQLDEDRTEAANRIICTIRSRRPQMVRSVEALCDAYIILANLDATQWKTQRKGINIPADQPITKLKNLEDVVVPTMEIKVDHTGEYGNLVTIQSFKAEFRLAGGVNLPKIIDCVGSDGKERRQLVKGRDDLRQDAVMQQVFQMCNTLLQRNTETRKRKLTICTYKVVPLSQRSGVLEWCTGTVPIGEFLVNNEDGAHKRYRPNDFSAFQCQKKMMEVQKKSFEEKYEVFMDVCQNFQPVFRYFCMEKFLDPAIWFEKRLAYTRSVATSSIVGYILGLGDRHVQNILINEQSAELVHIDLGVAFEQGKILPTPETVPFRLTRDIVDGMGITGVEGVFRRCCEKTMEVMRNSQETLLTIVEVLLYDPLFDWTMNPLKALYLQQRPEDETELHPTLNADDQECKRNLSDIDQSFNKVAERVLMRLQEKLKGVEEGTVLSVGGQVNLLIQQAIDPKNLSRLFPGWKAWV

| IC50 [1] | SMILES | further results |
| --- | --- | --- |
| 0.45 nM | CC[C@@H]1CNc2c(-c3ccc(OCCCN4CCCCC4)nc3)c(F)cc3ncc4c(c23)n1c(=O)n4C [US20240294545, Compound A-194] | – |
| 0.33 nM | Cn1c(=O)n2c3c4c(c(-c5ccc(OCCCN6CCC7(CC6)COC7)nc5)c(F)cc4ncc31)OCC21CCC1 [US20240294545, Compound A-167] | – |
| 0.21 nM | Cn1c(=O)n2c3c4c(c(-c5ccc(OCCCN6CCC(C#N)CC6)nc5)c(F)cc4ncc31)OCC21CCC1 [US20240294545, Compound A-166] | – |
| 0.08 nM | COc1cc2ncc3c4c2c(oc2ccccc2n4c(=O)n3C)c1-c1cnn(C)c1 [US20240294545, Compound A-33] | – |
| 0.37 nM | Cn1c(=O)n2c3c4c(c(-c5ccc(OCCCN6CCC(F)CC6)nc5)c(F)cc4ncc31)OCC21CCC1 [US20240294545, Compound A-165] | – |
| 0.7 nM | Cn1c(=O)n2c3c4c(c(-c5ccc(OCCCN6CC7CC7C6)nc5)c(F)cc4ncc31)OCC21CCC1 (stereo not given) [US20240294545, Compound A-170] | – |
| 0.45 nM | Cn1c(=O)n2c3c4c(c(-c5ccc(OCCCN6CCCCC6)nc5)c(F)cc4ncc31)OC1CCCCC12 (stereo not given) [US20240294545, Compound A-21] | IC50 [2]: > 10000 nM; IC50 [3]: 2230 nM; IC50 [4]: > 10000 nM; IC50 [5]: > 10000 nM; IC50 [6]: > 10000 nM; IC50 [7]: > 10000 nM |
| 0.78 nM | Cn1c(=O)n2c3c4c(c(-c5ccc(OCCCN6CCCCC6)nc5)c(F)cc4ncc31)OCC21CCOCC1 [US20240294545, Compound A-204] | – |
| 0.61 nM | CC[C@@H]1CNc2c(-c3ccc(OCCCN4CCCCC4)nc3)ccc3ncc4c(c23)n1c(=O)n4C [US20240294545, Compound A-201] | – |

— BindingDB's records for patent US20240294545 (Cspc Zhongqi Pharmaceutical Technology (Shijiazhuang), 2024)
